Earlier results as cited in patent publication US6051685A, “Peptide derivatives” (Daiichi Pharmaceuticals Co., Ltd., priority 1994, dated 2000).

Legend:
[1] = intraventricular administration
[2] = in vivo

## C[C@@H](NC(=O)[C@@H](N)Cc1ccc(O)cc1)C(=O)N[C@@H](Cc1ccccc1)C(=O)NCC(=O)N[C@@H](Cc1ccc(O)cc1)C(=O)N1CCC[C@H]1C(=O)N[C@@H](CO)C(N)=O [Delmorfine, Dermorphin]
[1]
  analgesic effect relative to morphine: about 1,000 fold
[2]
  stability in living bodies: relatively stable in living bodies
